{"source": "patent US20170000133A1", "about": "“BENZOXABOROLE FUNGICIDES” (SYNGENTA PARTICIPATIONS AG, priority 2013, published 2017)", "data": [{"tested_on": "Plasmopara viticola", "experiment": "whole plant or invertebrate", "assay_type": "in vivo", "conditions": "foliar, read-out: disease control", "units": {"pest or weed control at 200 ppm": "%"}, "values": [{"smiles": "COC(=O)C(C)OC(=O)c1cc2c(cc1F)COB2O", "note": "(stereo not shown) [Compound 393]", "pest or weed control at 200 ppm": "≥ 80"}, {"smiles": "N#CCOC(=O)c1cc2c(cc1F)COB2O", "note": "[Compound 401]", "pest or weed control at 200 ppm": "≥ 80"}, {"smiles": "C#CCCOC(=O)c1cc2c(cc1F)COB2O", "note": "[Compound 418]", "pest or weed control at 200 ppm": "≥ 80"}, {"smiles": "COC(=O)COC(=O)c1cc2c(cc1F)COB2O", "note": "[Compound 419]", "pest or weed control at 200 ppm": "≥ 80"}]}, {"tested_on": "Fusarium culmorum", "experiment": "microbe, parasite or virus in culture", "assay_type": "cell-based", "conditions": "read-out: disease control (inhibition of growth determined visually)", "units": {"inhibition at 200 ppm": "%"}, "values": [{"smiles": "COC(=O)COC(=O)c1cc2c(cc1F)COB2O", "note": "[Compound 419]", "inhibition at 200 ppm": "≥ 80"}]}, {"tested_on": "Pythium ultimum", "experiment": "Pythium ultimum / liquid culture (seedling damping off)", "assay_type": "cell-based", "conditions": "Globisporangium ultimum; 200 ppm; potato dextrose broth, 24° C., 2-3 days after application; read-out: disease control (inhibition of growth determined photometrically)", "units": {"inhibition at 200 ppm": "%"}, "values": [{"smiles": "COC(=O)C(C)OC(=O)c1cc2c(cc1F)COB2O", "note": "(stereo not shown) [Compound 393]", "inhibition at 200 ppm": "≥ 80"}, {"smiles": "N#CCOC(=O)c1cc2c(cc1F)COB2O", "note": "[Compound 401]", "inhibition at 200 ppm": "≥ 80"}, {"smiles": "C#CCCOC(=O)c1cc2c(cc1F)COB2O", "note": "[Compound 418]", "inhibition at 200 ppm": "≥ 80"}, {"smiles": "COC(=O)COC(=O)c1cc2c(cc1F)COB2O", "note": "[Compound 419]", "inhibition at 200 ppm": "≥ 80"}]}, {"tested_on": "Thanatephorus cucumeris (Rhizoctonia solani)", "experiment": "Thanatephorus cucumeris (Rhizoctonia solani) / liquid culture (foot rot, damping-off)", "assay_type": "cell-based", "conditions": "PDB potato dextrose broth, 24° C., 3-4 days after application, read-out: disease control (inhibition of growth determined photometrically)", "how_it_was_run": "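Mycelial fragments from fresh liquid culture were suspended in potato dextrose broth and added to compound in DMSO at 200 ppm. After 3-4 days at 24 °C, growth inhibition was measured photometrically.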", "units": {"inhibition at 200 ppm": "%"}, "values": [{"smiles": "COC(=O)C(C)OC(=O)c1cc2c(cc1F)COB2O", "note": "(stereo not shown) [Compound 393]", "inhibition at 200 ppm": "≥ 80"}, {"smiles": "C#CCCOC(=O)c1cc2c(cc1F)COB2O", "note": "[Compound 418]", "inhibition at 200 ppm": "≥ 80"}, {"smiles": "COC(=O)COC(=O)c1cc2c(cc1F)COB2O", "note": "[Compound 419]", "inhibition at 200 ppm": "≥ 80"}]}, {"tested_on": "Sclerotinia sclerotiorum", "experiment": "Sclerotinia sclerotiorum / liquid culture (cottony rot)", "assay_type": "cell-based", "conditions": "PDB potato dextrose broth, 24° C., 3-4 days after application, read-out: disease control (inhibition of growth determined visually)", "method": "18. Sclerotinia sclerotiorum/Liquid Culture (Cottony Rot): Mycelia fragments of a newly grown liquid culture of the fungus were directly mixed into nutrient broth (PDB potato dextrose broth). After placing a (DMSO) solution of the test compounds into a microtiter plate (96-well format) the nutrient broth containing the fungal material was added. The test plates were incubated at 24° C. and the inhibition of growth was determined visually 3-4 days after application.", "units": {"inhibition at 200 ppm": "%"}, "values": [{"smiles": "C#CCCOC(=O)c1cc2c(cc1F)COB2O", "note": "[Compound 418]", "inhibition at 200 ppm": "≥ 80"}, {"smiles": "COC(=O)COC(=O)c1cc2c(cc1F)COB2O", "note": "[Compound 419]", "inhibition at 200 ppm": "≥ 80"}]}, {"tested_on": "not given", "experiment": "not given", "conditions": "not given", "units": {"melting point": "°C"}, "values": [{"smiles": "COC(=O)COC(=O)c1cc2c(cc1F)COB2O", "note": "[Compound 419]", "melting point": "112 to 114"}]}, {"tested_on": "Puccinia recondita f. sp. tritici", "experiment": "Puccinia recondita f. sp. tritici / wheat / leaf disc preventative (brown rust)", "assay_type": "in vivo", "conditions": "foliar, wheat leaf segments cv Kanzler, inoculated 1 day after application, assessed 7-9 days after application, read-out: disease control", "from_the_text": "3. Puccinia recondita f. sp. tritici/Wheat/Leaf Disc Preventative (Brown Rust): Wheat leaf segments cultivated variety (cv) Kanzler were placed on agar in 24-well plates and sprayed with formulated test compound diluted in water at an application rate of 200 ppm. The leaf disks were inoculated with a spore suspension of the fungus 1 day after application.", "units": {"pest or weed control at 200 ppm": "%"}, "values": [{"smiles": "COC(=O)COC(=O)c1cc2c(cc1F)COB2O", "note": "[Compound 419]", "pest or weed control at 200 ppm": "≥ 80"}]}, {"tested_on": "Glomerella lagenarium (Colletotrichum lagenarium)", "experiment": "Glomerella lagenarium (Colletotrichum lagenarium) / liquid culture (anthracnose)", "assay_type": "cell-based", "conditions": "Colletotrichum orbiculare, PDB potato dextrose broth, 24° C., 3-4 days after application, read-out: disease control (inhibition of growth measured photometrically)", "how_it_was_run": "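Conidia of G. lagenarium from cryogenic storage were suspended in potato dextrose broth and added to test compound in DMSO at 200 ppm. Plates were incubated at 24° C, and growth inhibition was read photometrically 3-4 days after application.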", "units": {"inhibition at 200 ppm": "%"}, "values": [{"smiles": "COC(=O)COC(=O)c1cc2c(cc1F)COB2O", "note": "[Compound 419]", "inhibition at 200 ppm": "≥ 80"}]}, {"tested_on": "Botryotinia fuckeliana (Botrytis cinerea)", "experiment": "Botryotinia fuckeliana (Botrytis cinerea) / liquid culture (gray mould)", "assay_type": "cell-based", "conditions": "Vogels broth, 24° C., 3-4 days after application, read-out: disease control (inhibition of growth determined photometrically)", "method": "10. Botryotinia fuckeliana (Botrytis cinerea)/Liquid Culture (Gray Mould): Conidia of the fungus from cryogenic storage were directly mixed into nutrient broth (Vogels broth). After placing a DMSO solution of test compound into a 96-well microtiter plate at an application rate of 200 ppm, the nutrient broth containing the fungal spores was added. The test plates were incubated at 24° C. and the inhibition of growth was determined photometrically 3-4 days after application.", "units": {"inhibition at 200 ppm": "%"}, "values": [{"smiles": "COC(=O)COC(=O)c1cc2c(cc1F)COB2O", "note": "[Compound 419]", "inhibition at 200 ppm": "≥ 80"}]}, {"tested_on": "Puccinia recondita f. sp. tritici", "experiment": "Puccinia recondita f. sp. tritici / wheat / leaf disc curative (brown rust)", "assay_type": "in vivo", "conditions": "foliar, 192 h, wheat leaf segments, applied one day after inoculation, assessed 8 dpi, read-out: disease control", "method": "4. Puccinia recondita f. sp. tritici/Wheat/Leaf Disc Curative (Brown Rust) Wheat leaf segments are placed on agar in multiwell plates (24-well format). The leaf disks are then inoculated with a spore suspension of the fungus. One day after inoculation the test solution is applied. After appropriate incubation the activity of a compound is assessed 8 dpi (days after inoculation) as curative fungicidal activity. Dose range: 200-22 ppm.", "units": {"pest or weed control at 200 ppm": "%"}, "values": [{"smiles": "COC(=O)C(C)OC(=O)c1cc2c(cc1F)COB2O", "note": "(stereo not shown) [Compound 393]", "pest or weed control at 200 ppm": "≥ 80"}, {"smiles": "N#CCOC(=O)c1cc2c(cc1F)COB2O", "note": "[Compound 401]", "pest or weed control at 200 ppm": "≥ 80"}, {"smiles": "C#CCCOC(=O)c1cc2c(cc1F)COB2O", "note": "[Compound 418]", "pest or weed control at 200 ppm": "≥ 80"}, {"smiles": "COC(=O)COC(=O)c1cc2c(cc1F)COB2O", "note": "[Compound 419]", "pest or weed control at 200 ppm": "≥ 80"}]}, {"tested_on": "Gaeumannomyces graminis", "experiment": "Gaeumannomyces graminis / liquid culture (take-all of cereals)", "assay_type": "cell-based", "conditions": "PDB potato dextrose broth, 24° C., 4-5 days after application, read-out: disease control (inhibition of growth determined photometrically)", "how_it_was_run": "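Cryo-stored mycelial fragments in potato dextrose broth exposed to compound in DMSO at 200 ppm. Incubated at 24 °C; growth inhibition read photometrically 4–5 days after application.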", "units": {"inhibition at 200 ppm": "%"}, "values": [{"smiles": "COC(=O)C(C)OC(=O)c1cc2c(cc1F)COB2O", "note": "(stereo not shown) [Compound 393]", "inhibition at 200 ppm": "≥ 80"}, {"smiles": "C#CCCOC(=O)c1cc2c(cc1F)COB2O", "note": "[Compound 418]", "inhibition at 200 ppm": "≥ 80"}, {"smiles": "COC(=O)COC(=O)c1cc2c(cc1F)COB2O", "note": "[Compound 419]", "inhibition at 200 ppm": "≥ 80"}]}, {"tested_on": "Mycosphaerella graminicola (Septoria tritici)", "experiment": "Mycosphaerella graminicola (Septoria tritici) / liquid culture (Septoria blotch)", "assay_type": "cell-based", "conditions": "Zymoseptoria tritici, PDB potato dextrose broth, 24° C., 4-5 days after application, read-out: disease control (inhibition of growth determined photometrically)", "how_it_was_run": "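Conidia from cryostorage were suspended in potato dextrose broth and added to test compound in DMSO at 200 ppm in microtiter wells. Plates were incubated at 24° C and growth inhibition measured photometrically 4-5 days after application.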", "units": {"inhibition at 200 ppm": "%"}, "values": [{"smiles": "C#CCCOC(=O)c1cc2c(cc1F)COB2O", "note": "[Compound 418]", "inhibition at 200 ppm": "≥ 80"}, {"smiles": "COC(=O)COC(=O)c1cc2c(cc1F)COB2O", "note": "[Compound 419]", "inhibition at 200 ppm": "≥ 80"}]}, {"tested_on": "Monographella nivalis (Microdochium nivale)", "experiment": "Monographella nivalis (Microdochium nivale) / liquid culture (foot rot cereals)", "assay_type": "cell-based", "conditions": "PDB potato dextrose broth, 24° C., 4-5 days after application, read-out: disease control (inhibition of growth determined photometrically)", "units": {"inhibition at 200 ppm": "%"}, "values": [{"smiles": "C#CCCOC(=O)c1cc2c(cc1F)COB2O", "note": "[Compound 418]", "inhibition at 200 ppm": "≥ 80"}, {"smiles": "COC(=O)COC(=O)c1cc2c(cc1F)COB2O", "note": "[Compound 419]", "inhibition at 200 ppm": "≥ 80"}]}, {"tested_on": "Mycosphaerella arachidis (Cercospora arachidicola)", "experiment": "Mycosphaerella arachidis (Cercospora arachidicola) / liquid culture (early leaf spot)", "assay_type": "cell-based", "conditions": "PDB potato dextrose broth, 24° C., 4-5 days after application, read-out: disease control (inhibition of growth determined photometrically)", "how_it_was_run": "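Conidia from cryogenic storage mixed into potato dextrose broth and added to compound at 200 ppm in DMSO. Incubation at 24° C.; growth inhibition read photometrically 4-5 days after application.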", "units": {"inhibition at 200 ppm": "%"}, "values": [{"smiles": "C#CCCOC(=O)c1cc2c(cc1F)COB2O", "note": "[Compound 418]", "inhibition at 200 ppm": "≥ 80"}, {"smiles": "COC(=O)COC(=O)c1cc2c(cc1F)COB2O", "note": "[Compound 419]", "inhibition at 200 ppm": "≥ 80"}]}]}
